The numbers were not newly measured in patent publication US9615750B2, “Methods and compositions for carrier agents and clearing agents used in optoacoustic imaging systems” (SENO MEDICAL INSTRUMENTS, INC., priority 2012, dated 2017), which cites them from elsewhere.

For the data set the following is noted: for Solubility: in words, solvents as named.

Take `OCc1ccccc1` [Benzyl alcohol]: the Solubility in water entry is recorded as “soluble 4 g/100 ml”.

On to `CN1CCCN(C)C1=O` [Cyclic Urea], for which the Solubility entry is “Soluble in water”.

As to `NC(N)=O` [Urea], the Solubility in water is greater than 100 g/100 ml).

For Chondroitin Sulfate, the Solubility entry is given as “Water Soluble”.

For Heparin [reference compound], the Solubility result is “Water Soluble”.

As for Keratan Sulfate, the Solubility entry is on record as “Water Soluble”.

Consider “Polyoxyethylene (20) sorbitan [TWEEN ® 20]”, for which the Solubility entry is “Insoluble in Mineral Oil”.
